Measurements as given in ChEMBL document CHEMBL5108007, “High ligand efficiency quinazoline compounds as novel A2A adenosine receptor antagonists” (Eur J Med Chem, 2022).

molecular target: Adenosine receptor A2a (Homo sapiens, UniProt P29274); assay: Displacement of [3H]ZM241385 from human adenosine A2A receptor expressed in HEK293 cell membrane incubated for 1 hr by microplate beta scintillation counting based radioligand inhibition assay; format: cell membranes
Sequence (P29274 whole entry): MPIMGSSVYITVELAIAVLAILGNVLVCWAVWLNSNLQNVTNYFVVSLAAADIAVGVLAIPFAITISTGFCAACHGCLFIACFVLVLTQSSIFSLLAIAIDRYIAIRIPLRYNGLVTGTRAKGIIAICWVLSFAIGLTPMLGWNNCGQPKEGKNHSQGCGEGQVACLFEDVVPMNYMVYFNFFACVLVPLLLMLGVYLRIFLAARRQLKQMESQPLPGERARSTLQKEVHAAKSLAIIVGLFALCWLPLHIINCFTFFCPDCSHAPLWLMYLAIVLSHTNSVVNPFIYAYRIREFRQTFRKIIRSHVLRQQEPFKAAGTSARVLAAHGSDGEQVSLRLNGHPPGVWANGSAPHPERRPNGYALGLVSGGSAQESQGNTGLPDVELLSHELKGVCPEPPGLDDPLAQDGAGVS

Ki [µM] | Structure (SMILES)
> 10 | Cc1cccc(C)c1-c1nc(N)nc2ccccc12
0.08 | Nc1nc(-c2ccc(F)cc2)c2ccccc2n1
0.456 | Nc1nc(-c2ccccc2F)c2ccccc2n1
> 10 | CC(C)(C)c1ccc(-c2nc(N)nc3ccccc23)cc1
> 10 | NCc1nc(-c2ccco2)c2ccccc2n1
0.174 | Nc1nc(-c2cccc(F)c2)c2ccccc2n1
0.171 | Nc1nc(-c2cccs2)c2ccccc2n1
4 | C(#Cc1ncnc2ccccc12)c1ccccc1
> 10 | NCc1nc(NCCc2ccccc2)c2ccccc2n1
0.736 | COc1ccc(-c2nc(N)nc3ccccc23)cc1
0.696 | Nc1nc(-c2ccoc2)c2ccccc2n1
1.5 | Cc1ccc(-c2nc(N)nc3ccccc23)cc1
0.586 | N#Cc1cccc(-c2nc(N)nc3ccccc23)c1
0.089 | Nc1nc(-c2ccco2)c2ccccc2n1
> 10 | Nc1nc(-c2ccccc2)nc2ccccc12
> 10 | Nc1nc(-c2ccccc2[N+](=O)[O-])c2ccccc2n1
0.651 | COc1ccccc1-c1nc(N)nc2ccccc12
> 10 | Oc1nc(-c2ccccc2)c2ccccc2n1
> 10 | NCc1nc(-c2ccccc2)c2ccccc2n1
2 | Nc1nc(-c2ccccc2N)c2ccccc2n1
0.198 | Nc1nc(-c2ccccc2)c2ccccc2n1
> 10 | Nc1nc(Nc2ccccc2)c2ccccc2n1
2.3 | c1ccc(-c2ncnc3ccccc23)cc1
0.708 | COc1cccc(-c2nc(N)nc3ccccc23)c1
> 10 | Nc1nc(CCc2ccccc2)c2ccccc2n1
3.3 | Cc1ccccc1-c1nc(N)nc2ccccc12
> 10 | Clc1nc(-c2ccccc2)c2ccccc2n1
> 10 | Nc1nc(NCc2ccccc2)c2ccccc2n1
> 10 | Nc1nc(NCCc2ccccc2)c2ccccc2n1

Structure (SMILES) | Ki [µM]
c1ccc(CCNc2ncnc3ccccc23)cc1 | > 10
